pEC50, pIC50: −log10 of the molar value. Like-named read-outs stand apart in the source and are kept apart here.
Assays:
[1] = target: T1, human DGKζ (Homo sapiens, UniProt Q13574); test: DGKζ LIPGLO assay (extruded liposome substrate), in vitro DGK inhibition; assay type: biochemical; details: read-out: DGKz LIPGLO IC50
T1 construct: TVMV protease cleavage site (C); Hexa-His (C); made in house; host or cells: Sf9 insect cells (baculovirus, Bac-to-Bac)

[2] = target: T2, human DGKα (Homo sapiens, UniProt P23743); test: DGKα LIPGLO assay (extruded liposome substrate), in vitro DGK inhibition; assay type: biochemical; details: read-out: DGKa LIPGLO IC50
T2 construct: TVMV protease cleavage site (C); Hexa-His (C); made in house; host or cells: Sf9 insect cells (baculovirus, Bac-to-Bac)
T2 sequence (P23743 with tags, fused parts or gaps): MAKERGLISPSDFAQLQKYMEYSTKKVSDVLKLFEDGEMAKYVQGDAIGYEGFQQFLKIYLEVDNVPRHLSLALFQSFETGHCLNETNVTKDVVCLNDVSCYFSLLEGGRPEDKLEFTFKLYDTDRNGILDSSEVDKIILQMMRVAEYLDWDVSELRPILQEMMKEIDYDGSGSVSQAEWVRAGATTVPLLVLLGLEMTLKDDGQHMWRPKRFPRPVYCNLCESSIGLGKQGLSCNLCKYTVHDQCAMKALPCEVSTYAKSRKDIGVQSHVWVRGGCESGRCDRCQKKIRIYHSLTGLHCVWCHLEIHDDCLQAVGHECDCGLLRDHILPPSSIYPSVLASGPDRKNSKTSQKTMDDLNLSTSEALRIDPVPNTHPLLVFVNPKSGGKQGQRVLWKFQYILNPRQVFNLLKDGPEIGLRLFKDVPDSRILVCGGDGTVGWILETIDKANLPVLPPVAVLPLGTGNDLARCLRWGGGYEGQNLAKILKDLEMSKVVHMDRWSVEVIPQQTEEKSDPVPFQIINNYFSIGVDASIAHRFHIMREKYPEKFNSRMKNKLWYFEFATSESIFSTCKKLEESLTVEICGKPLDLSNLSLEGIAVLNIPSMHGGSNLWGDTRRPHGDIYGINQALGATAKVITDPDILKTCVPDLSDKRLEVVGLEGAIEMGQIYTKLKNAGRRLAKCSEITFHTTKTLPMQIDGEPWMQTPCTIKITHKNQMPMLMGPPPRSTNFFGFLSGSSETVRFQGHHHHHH

[3] = test system: Human venous whole blood; test: Human whole blood IFN-γ assay; assay type: cell-based; details: human whole blood, read-out: INFg Whole Blood Normalized Agonist EC50;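 further: blood from healthy donors exposed to compound for 1 h before stimulation with anti-CD3 and anti-CD28 at 1 µg/mL each, IFN-γ quantified in supernatant by AlphaLISA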
Procedure: Human Whole Blood IFN-γ Assay
Human venous whole blood (22.5 μL per well), obtained from healthy donors, was pre-treated with compounds for one hour at 37° C. in a humidified 95% air/5% CO2 incubator. The blood was stimulated with 2.5 μL anti-human CD3 and anti-CD28 mAb at a final concentration of 1 μg/mL each for 24 hours at 37° C. IFN-γ in the supernatants was measured using AlphLISA kit (Cat # AL217).

[4] = Homo sapiens, 24 h, normalized to 3 μM reference compound with anti-CD3 plus anti-CD28 as 100% activation
[5] = anti-CD3 plus anti-CD28, 24 hours, 3 μM reference compound = 100% activation
[6] = normalized to 3 μM reference compound with anti-CD3 plus anti-CD28 as 100% activation
[7] = Homo sapiens, 24 h, anti-CD3 plus anti-CD28, 24 hours, 3 μM reference compound = 100% activation

T1 sequence (Q13574 with tags, fused parts or gaps isoform Q13574-4): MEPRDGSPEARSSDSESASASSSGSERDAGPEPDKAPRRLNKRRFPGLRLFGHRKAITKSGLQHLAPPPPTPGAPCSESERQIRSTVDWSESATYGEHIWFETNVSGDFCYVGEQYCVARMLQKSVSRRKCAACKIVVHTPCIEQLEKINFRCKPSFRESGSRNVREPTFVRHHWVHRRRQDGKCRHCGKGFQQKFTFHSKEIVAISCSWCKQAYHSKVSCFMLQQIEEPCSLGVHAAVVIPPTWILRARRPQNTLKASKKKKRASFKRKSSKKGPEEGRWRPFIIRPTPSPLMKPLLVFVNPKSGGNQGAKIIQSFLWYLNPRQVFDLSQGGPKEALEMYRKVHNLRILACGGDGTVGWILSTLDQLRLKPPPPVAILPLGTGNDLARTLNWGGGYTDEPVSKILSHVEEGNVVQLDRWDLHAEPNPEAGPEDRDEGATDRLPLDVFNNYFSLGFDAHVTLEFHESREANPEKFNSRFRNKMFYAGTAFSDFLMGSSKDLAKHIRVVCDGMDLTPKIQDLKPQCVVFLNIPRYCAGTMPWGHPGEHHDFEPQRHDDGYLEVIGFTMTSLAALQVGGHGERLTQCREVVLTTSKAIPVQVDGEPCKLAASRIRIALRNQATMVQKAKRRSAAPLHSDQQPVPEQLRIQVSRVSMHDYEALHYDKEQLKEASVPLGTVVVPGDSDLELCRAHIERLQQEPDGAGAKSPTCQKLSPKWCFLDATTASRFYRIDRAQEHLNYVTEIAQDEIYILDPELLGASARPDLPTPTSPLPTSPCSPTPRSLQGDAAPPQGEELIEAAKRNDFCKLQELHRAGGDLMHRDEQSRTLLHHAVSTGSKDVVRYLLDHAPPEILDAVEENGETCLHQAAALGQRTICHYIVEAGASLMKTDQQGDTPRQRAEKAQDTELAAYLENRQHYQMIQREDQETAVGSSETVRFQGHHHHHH

Row | Structure (SMILES) | pIC50 ([1]; liposome (LIPGLO) assay) | pIC50 ([2]; liposome (LIPGLO) assay) | pEC50 [3, 4] | pIC50 ([1]; DGKζ liposome (LIPGLO) assay) | pIC50 ([2]; DGKα liposome (LIPGLO) assay) | pEC50 [3, 5] | pEC50 [3, 6] | pEC50 [3, 7]
1 | COCCOC[C@@H]1CN(c2cc(=O)n(C)c3ccc(C#N)nc23)[C@@H](C)CN1C(C)c1ccc(OC(F)(F)F)cc1 (single isomer, unassigned) [Example 1406] | 6.02 | 5.57 | 4.92 |  |  |  |  | 
2 | CCc1ccccc1C(c1ccc(F)cc1)N1CCN(c2c(C#N)c(=O)n(C)c3ccc(C#N)nc23)C[C@H]1C (stereo partly drawn) [Example 876] |  |  |  | 6.29 | 5.62 | 5.66 |  | 
3 | C[C@@H]1CN(c2cc(=O)n(C)c3ccc(C#N)nc23)[C@@H](C)CN1C(CO)c1ccc(F)cc1 (single isomer, unassigned) [Example 557] | 5.28 | 6.30 |  |  |  |  | 5.80 | 
4 | CC[C@H]1CN(C(c2ccc(F)cc2)c2ccccn2)[C@H](CC)CN1c1cc(=O)n(C)c2ccc(C#N)nc12 (single isomer, unassigned) [Example 1043] | 6.54 | 7.31 | 6.41 |  |  |  |  | 
5 | Cc1ccc(C(c2cccc(F)c2)N2C[C@H](C)N(c3cc(=O)n(C)c4ccc(C#N)nc34)C[C@H]2CO)nc1 (stereo partly drawn) [Example 1154] | 4.30 | 5.09 | 5.62 |  |  |  |  | 
6 | C[C@@H]1CN(c2cc(=O)n(C)c3ccc(C#N)nc23)[C@@H](C)CN1C(c1ccccc1)c1ccc(Cl)cc1 (single isomer, unassigned) [Example 671] | 5.49 | 5.48 |  |  |  |  | 5.92 | 
7 | C[C@@H]1CN(c2c(C#N)c(=O)n(C)c3ccc(C#N)nc23)CCN1Cc1cccc(C(F)(F)F)n1 [Example 991] |  |  |  | 6.10 | 6.51 |  |  | 4.96
8 | Cc1cc(C)cc(CN2CCN(c3c(C#N)c(=O)n(C)c4ccc(C#N)nc34)C[C@H]2C)c1 [Example 1000] |  |  |  | 5.21 | 5.57 |  |  | 5.40
9 | Cc1ccc(C(c2cccc(Cl)c2)N2C[C@H](C)N(c3cc(=O)n(C)c4ccc(C#N)nc34)C[C@H]2C)nc1 (stereo partly drawn) [Example 398, 8-((2S,5R)-4-((3-chlorophenyl)(5-methylpyridin-2-yl)methyl)-2,5-dimethylpiperazin-1-yl)-5-methyl-6-oxo-5,6-dihydro-1,5-naphthyridine-2-carbonitrile] | 5.85 | 5.96 | 6.39 |  |  |  |  | 
10 | C[C@@H]1CN(c2c(C#N)c(=O)n(C)c3ccc(C#N)nc23)[C@@H](C)CN1C(c1ccc(F)cc1)c1cncn1C (stereo partly drawn) [Example 848] |  |  |  | 4.00 | 3.64 |  |  | 4.70
11 | CC[C@H]1CN(C(c2ccc(F)cc2)c2ccc(C(F)(F)F)cn2)[C@H](CC)CN1c1cc(=O)n(C)c2ccc(C#N)nc12 (stereo partly drawn) [Example 1039] | 7.06 | 6.96 | 7.04 |  |  |  |  | 
12 | Cc1ccc(C(c2ccc(C#N)cc2)N2C[C@H](C)N(c3cc(=O)n(C)c4ccc(C#N)nc34)C[C@H]2C)nc1 (stereo partly drawn) [Example 453, 8-((2S,5R)-4-((4-cyanophenyl)(5-methylpyridin-2-yl)methyl)-2,5-dimethylpiperazin-1-yl)-5-methyl-6-oxo-5,6-dihydro-1,5-naphthyridine-2-carbonitrile] | 6.00 | 6.51 |  |  |  |  | 5.55 | 
13 | C[C@@H]1CN(c2c(C#N)c(=O)n(C)c3ccc(C#N)nc23)CCN1Cc1ccc(-c2ccccc2)cc1 [Example 994] |  |  |  | 3.96 | 5.19 |  |  | 4.70
14 | C[C@@H]1CN(c2cc(=O)n(C)c3ccc(C#N)nc23)[C@@H](C)CN1Cc1ccc(C(C)(C)C)cc1 [Example 587] | 5.18 | 5.34 | 5.64 |  |  |  |  | 
15 | CC[C@H]1CN(C(c2cccc(F)c2)c2ccc(OC)cn2)[C@H](CC)CN1c1cc(=O)n(C)c2ccc(C#N)nc12 (stereo partly drawn) [Example 1048] | 6.82 | 7.08 | 6.72 |  |  |  |  | 
16 | C[C@@H]1CN(c2cc(=O)n(C)c3ccc(C#N)nc23)[C@@H](C)CN1C(c1ccc(F)cc1)c1cc(F)ccn1 (single isomer, unassigned) [Example 474] | 5.92 | 6.59 |  |  |  |  | 6.59 | 
17 | COC[C@@H]1CN(c2cc(=O)n(C)c3ccc(C#N)nc23)[C@@H](C)CN1C(c1ccc(F)cc1)c1ccc(C(F)(F)F)cn1 (stereo partly drawn) [Example 1401] | 7.31 | 6.52 | 6.33 |  |  |  |  | 
18 | C[C@@H]1CN(c2cc(=O)n(C)c3ccc(C#N)nc23)[C@@H](C)CN1C(c1ccc(F)cc1)c1ccns1 (stereo partly drawn) [Example 719] | 6.42 | 6.40 |  |  |  |  | 6.30 | 
19 | COCc1cc(C(C)N2C[C@H](C)N(c3cc(=O)n(C)c4ccc(C#N)nc34)C[C@H]2C)ccc1F (single isomer, unassigned) [Example 1317] | 6.01 | 5.10 |  |  |  |  | 5.54 | 

Row | Structure (SMILES) | pIC50 ([1]; liposome (LIPGLO) assay) | pIC50 ([2]; liposome (LIPGLO) assay) | pEC50 [3, 4] | pIC50 ([1]; DGKζ liposome (LIPGLO) assay) | pIC50 ([2]; DGKα liposome (LIPGLO) assay) | pEC50 [3, 5] | pEC50 [3, 6] | pEC50 [3, 7]
20 | C[C@@H]1CN(c2cc(=O)n(C)c3ccc(C#N)nc23)[C@@H](C)CN1C(c1ccc(F)cc1)C(F)(F)F (single isomer, unassigned) [Example 583] | 6.02 | 7.00 |  |  |  |  | 6.34 | 
21 | CC(c1cccc2ncccc12)N1C[C@H](C)N(c2cc(=O)n(C)c3ccc(C#N)nc23)C[C@H]1C (single isomer, unassigned) [Example 639] | 4.74 | 4.01 |  |  |  |  | 4.70 | 
22 | Cc1ccc(C(c2ccc(F)cc2Cl)N2C[C@H](C)N(c3c(C#N)c(=O)n(C)c4ccc(C#N)nc34)C[C@H]2C)nc1 (stereo partly drawn) [Example 831] |  |  |  | 5.19 | 4.38 |  |  | 5.60
23 | CC(c1ccc(OC(F)(F)F)cc1)N1C[C@H](C)N(c2cc(=O)n(C)c3ccc(C#N)nc23)C[C@H]1C (single isomer, unassigned) [Example 436] | 6.09 | 7.19 |  |  |  |  | 6.36 | 
24 | Cc1c(F)cccc1CN1CCN(c2c(C#N)c(=O)n(C)c3ccc(C#N)nc23)C[C@H]1C [Example 1010] |  |  |  | 6.00 | 5.74 |  |  | 5.70
25 | Cn1c(=O)cc(N2CCN(C(c3ccc(F)cc3)c3ccc(F)cc3)CC2c2ccccc2)c2nc(C#N)ccc21 (single isomer, unassigned) [Example 155, 8-(4-(bis(4-fluorophenyl)methyl)-2-phenylpiperazin-1-yl)-5-methyl-6-oxo-5,6-dihydro-1,5-naphthyridine-2-carbonitrile] | 3.62 | 3.62 |  |  |  |  | 4.70 | 
26 | C[C@@H]1CN(c2c(C#N)c(=O)n(C)c3ccc(C#N)nc23)[C@@H](C)CN1C(c1ccc(F)cc1)c1ccc(C#N)cc1 (single isomer, unassigned) [Example 823] |  |  |  | 4.40 | 4.74 | 5.12 |  | 
27 | Cc1ccc(C)c(C(C)N2CCN(c3c(C#N)c(=O)n(C)c4ccc(C#N)nc34)C[C@H]2C)c1 (single isomer, unassigned) [Example 976] |  |  |  | 5.19 | 4.77 | 4.70 |  | 
28 | CCOc1cc(F)c(CN2C[C@H](C)N(c3cc(=O)n(C)c4ccc(C#N)nc34)C[C@H]2C)c(F)c1 [Example 1275] | 6.59 | 6.85 | 6.72 |  |  |  |  | 
29 | Cc1ccc(C(c2cccc3c2OCCCO3)N2C[C@H](C)N(c3cc(=O)n(C)c4ccc(C#N)nc34)C[C@H]2C)nc1 (single isomer, unassigned) [Example 451] | 6.28 | 4.62 |  |  |  |  | 5.12 | 
30 | C[C@@H]1CN(c2cc(=O)n(C)c3ccc(C#N)nc23)[C@@H](C)CN1C(c1ccc(F)cc1)c1nc(C2CC2)nn1C (single isomer, unassigned) [Example 768] |  |  |  | 5.49 | 4.85 | 5.74 |  | 
31 | CC[C@@H]1CN(c2cc(=O)n(C)c3ccc(C#N)nc23)[C@@H](C)CN1C(C)c1ccc(F)cc1 (single isomer, unassigned) [Example 1084] | 5.30 | 5.77 |  |  |  |  | 5.59 | 
32 | CC(c1ccccc1OC(F)(F)F)N1C[C@H](C)N(c2cc(=O)n(C)c3ccc(C#N)nc23)C[C@H]1C (single isomer, unassigned) [Example 1212] | 6.96 | 4.64 | 4.96 |  |  |  |  | 
33 | C[C@@H]1CN(c2cc(=O)n(C)c3ccc(C#N)nc23)[C@@H](C)CN1C(c1ccc(F)cc1)c1csc(C(F)(F)F)n1 (single isomer, unassigned) [Example 1334] | 6.85 | 6.96 |  |  |  |  | 6.59 | 
34 | C[C@@H]1CN(c2c(C#N)c(=O)n(C)c3ccc(C#N)nc23)CCN1C(c1ccc(F)cc1)c1cccc(F)c1 (stereo partly drawn) [Example 880] |  |  |  | 5.60 | 5.19 | 4.70 |  | 
35 | C[C@@H]1CN(c2cc(=O)n(C)c3ccc(C#N)nc23)[C@@H](C)CN1Cc1cc(F)c(F)c(F)c1 [Example 1235] | 6.20 | 5.96 | 5.48 |  |  |  |  | 
36 | C[C@@H]1CN(c2cc(=O)n(C)c3ccc(C#N)nc23)[C@@H](C)CN1C(c1ccc(F)cc1)c1csc(C2CC2)n1 (single isomer, unassigned) [Example 724] |  |  |  | 7.01 | 7.08 | 6.59 |  | 
37 | Cc1ccc(F)c(CN2CCN(c3c(C#N)c(=O)n(C)c4ccc(C#N)nc34)C[C@H]2C)c1 [Example 1006] |  |  |  | 5.15 | 5.59 |  |  | 4.96
38 | C[C@@H]1CN(c2cc(=O)n(C)c3ccc(C#N)nc23)[C@@H](C)CN1C(c1ccc(OC(F)(F)F)cc1)c1nc(C2CC2)no1 (single isomer, unassigned) [Example 758] |  |  |  | 7.12 | 6.07 |  |  | 6.52

Reference: patent US10669272B2, “Substituted naphthyridinone compounds useful as T cell activators” (BRISTOL-MYERS SQUIBB COMPANY, priority 2018, dated 2020)
